Test systems include NCI-H23 lung; SK-MEL-5 melanoma; RPMI-8226 leukemia; CAKI-1 renal; HOP-62 NSCLC; HL-60(TB) leukemia; T-47D breast; MDA-MB-435; SK-OV-3 ovarian; HCT-116 colon; MCF7 breast; UO-31 renal; OVCAR-8 ovarian; SNB-19 CNS; 786-0 renal; HOP-92 NSCLC; NCI-H226 lung; OVCAR-5 ovarian; MALME-3M melanoma; HT29 colon.
What all share (assay): NCI tumour cell line growth inhibition, 48 h

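How tested: cells in 96-well plates exposed to compound for 48 hours at five concentrations. TGI: total growth inhibition.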

As to `Cc1cc(C)n(C(=O)CSc2nnc(SCC(=O)n3nc(C)cc3C)s2)n1`, the TGI with NCI-H23 lung, in the test on SK-MEL-5 melanoma, in the test with RPMI-8226 leukemia, with CAKI-1 renal, in the test with HOP-62 NSCLC and with HL-60(TB) leukemia was greater than 100 µM each time. The TGI with T-47D breast, in the test on MDA-MB-435, with SK-OV-3 ovarian, in the test with HCT-116 colon, with MCF7 breast and in the test on UO-31 renal was greater than 100 µM throughout. Moreover, the TGI in the test with OVCAR-8 ovarian, in the test with SNB-19 CNS, in the test on 786-0 renal, in the test on HOP-92 NSCLC, in the test on NCI-H226 lung and with OVCAR-5 ovarian was greater than 100 µM in each case.

As to `COC(=O)c1cc(C)n(CN(Cc2ccccc2)Cn2nc(C(=O)OC)cc2C)n1`, the TGI is greater than 100 µM with NCI-H23 lung; greater than 100 µM in the test on SK-MEL-5 melanoma; greater than 62.9 µM with RPMI-8226 leukemia; greater than 100 µM in the test with CAKI-1 renal; greater than 100 µM with HOP-62 NSCLC; greater than 100 µM in the test on MALME-3M melanoma. The TGI in the test on T-47D breast is greater than 100 µM; in the test with MDA-MB-435 it was greater than 100 µM; with HT29 colon, greater than 100 µM; in the test with SK-OV-3 ovarian it was greater than 100 µM; in the test with HCT-116 colon, greater than 59.8 µM; in the test with MCF7 breast, greater than 100 µM. Further, the TGI in the test on UO-31 renal is greater than 92.1 µM; in the test with OVCAR-8 ovarian, greater than 100 µM; in the test with SNB-19 CNS, greater than 100 µM; with 786-0 renal it was greater than 100 µM; in the test with HOP-92 NSCLC it was greater than 100 µM; in the test with NCI-H226 lung, greater than 100 µM. The molecule further yielded a TGI in the test on OVCAR-5 ovarian greater than 100 µM.

`COc1ccc2c(-c3ccc(O)cc3)c(Oc3ccc(Cl)cc3)c(=O)oc2c1`: the TGI with NCI-H23 lung came out at 8.32 µM; with SK-MEL-5 melanoma it was 10.4 µM; with RPMI-8226 leukemia, 20.8 µM; in the test with CAKI-1 renal, 10.2 µM; in the test with HOP-62 NSCLC, 44.2 µM; in the test with MALME-3M melanoma, 13.8 µM. The TGI in the test with T-47D breast is greater than 100 µM; with MDA-MB-435, 25.7 µM; in the test on HT29 colon it was greater than 38.1 µM; with SK-OV-3 ovarian it was 44.9 µM; with HCT-116 colon, greater than 33.6 µM; in the test on MCF7 breast, greater than 23.1 µM. Moreover, the TGI in the test with UO-31 renal is 13.6 µM; in the test with OVCAR-8 ovarian, greater than 48.8 µM; with SNB-19 CNS, 24.2 µM; in the test with 786-0 renal, greater than 35.1 µM; in the test on HOP-92 NSCLC, 23.7 µM; in the test on NCI-H226 lung, greater than 43.3 µM. The molecule further yielded a TGI in the test with OVCAR-5 ovarian of 21.4 µM.

Take `N#CCCN(CCC#N)c1ccc(C(N=Nc2ccc(Cl)cc2)=Nc2ccc(F)cc2)cc1`: the TGI in the test with NCI-H23 lung, in the test on SK-MEL-5 melanoma, in the test on RPMI-8226 leukemia, with CAKI-1 renal, in the test with HOP-62 NSCLC and in the test on T-47D breast was greater than 100 µM throughout. The TGI in the test with MDA-MB-435, with HT29 colon, in the test with SK-OV-3 ovarian, in the test with HCT-116 colon, in the test on MCF7 breast and with UO-31 renal was greater than 100 µM throughout. In addition, the TGI with OVCAR-8 ovarian, in the test on SNB-19 CNS, with 786-0 renal, in the test with HOP-92 NSCLC, in the test on NCI-H226 lung and in the test with OVCAR-5 ovarian was greater than 100 µM in each case.

On to `CC[C@@H](/C=C\CCC1(C[C@@H](N)CCC=C(C)C)OCCO1)O[Si](C(C)C)(C(C)C)C(C)C`, for which the TGI in the test on NCI-H23 lung was 38.2 µM; with SK-MEL-5 melanoma it was 32.7 µM; with RPMI-8226 leukemia, 38 µM; with CAKI-1 renal it was 35.4 µM; in the test with HOP-62 NSCLC, 48.2 µM; in the test with HL-60(TB) leukemia it was 23 µM. For the same molecule, the TGI came to 48.7 µM in the test with T-47D breast; 34.9 µM in the test on MDA-MB-435; 32 µM in the test on HT29 colon; 37.8 µM in the test with SK-OV-3 ovarian; 31.4 µM in the test with HCT-116 colon; 30.2 µM in the test on MCF7 breast. The TGI in the test on UO-31 renal amounted to 32.3 µM; with OVCAR-8 ovarian, 26.4 µM; in the test with SNB-19 CNS, 32.8 µM; in the test on 786-0 renal it was 31.8 µM; with HOP-92 NSCLC it was 28.7 µM; in the test with NCI-H226 lung, 34.2 µM. In addition, the TGI in the test with OVCAR-5 ovarian came to 31.1 µM.

Turning to `COc1ccc(-c2nc(-c3cnccn3)n(COCCO)n2)cc1`, the TGI in the test on NCI-H23 lung, in the test on SK-MEL-5 melanoma, with RPMI-8226 leukemia, in the test on HOP-62 NSCLC, in the test on HL-60(TB) leukemia and in the test with T-47D breast was greater than 100 µM each time. The TGI in the test with MDA-MB-435, in the test with HT29 colon, in the test with SK-OV-3 ovarian, in the test on HCT-116 colon, in the test with MCF7 breast and in the test on UO-31 renal was greater than 100 µM in each case. The TGI with OVCAR-8 ovarian, with SNB-19 CNS, in the test with 786-0 renal, in the test with HOP-92 NSCLC and in the test with OVCAR-5 ovarian was greater than 100 µM in each case.

In the case of `O=S(=O)(OI(O)CC(F)(F)F)C(F)(F)F`, the TGI in the test on NCI-H23 lung, in the test on SK-MEL-5 melanoma, in the test on RPMI-8226 leukemia, with CAKI-1 renal, with HOP-62 NSCLC and in the test on HL-60(TB) leukemia was greater than 100 µM in each case. In addition, the TGI with T-47D breast, in the test with MDA-MB-435, with HT29 colon, with SK-OV-3 ovarian, in the test with HCT-116 colon and in the test with MCF7 breast was greater than 100 µM in each case. Moreover, the TGI with UO-31 renal, in the test with OVCAR-8 ovarian, in the test on 786-0 renal, with HOP-92 NSCLC, in the test with NCI-H226 lung and in the test on OVCAR-5 ovarian was greater than 100 µM in each case.

For `O=C(O)C12C3CCC(O3)C1(C(=O)O)C1CCC2O1` (configuration not stated), the TGI in the test on NCI-H23 lung, in the test on SK-MEL-5 melanoma, in the test on RPMI-8226 leukemia, in the test with CAKI-1 renal, with HOP-62 NSCLC and with MALME-3M melanoma was greater than 100 µM each time. The TGI with HL-60(TB) leukemia, in the test with T-47D breast, with MDA-MB-435, in the test on HT29 colon, in the test on SK-OV-3 ovarian and with HCT-116 colon was greater than 100 µM each time. For the same molecule, the TGI in the test on MCF7 breast, in the test with UO-31 renal, in the test on OVCAR-8 ovarian, with SNB-19 CNS, in the test with 786-0 renal and in the test on NCI-H226 lung was greater than 100 µM each time. Further, the TGI in the test with OVCAR-5 ovarian is greater than 100 µM.

Take `COC(=O)C1C(C(=O)OC)C1(Br)CBr` (configuration not stated): the TGI with NCI-H23 lung is greater than 100 µM; in the test with SK-MEL-5 melanoma it was greater than 100 µM; with RPMI-8226 leukemia it was 44.3 µM; with CAKI-1 renal, 31.6 µM; in the test on HOP-62 NSCLC it was greater than 100 µM; in the test with HL-60(TB) leukemia, greater than 100 µM. For the same molecule, the TGI was 50.4 µM with T-47D breast; greater than 100 µM in the test with MDA-MB-435; 63.3 µM with HT29 colon; greater than 100 µM in the test with SK-OV-3 ovarian; greater than 100 µM in the test on HCT-116 colon; greater than 100 µM in the test with MCF7 breast. Besides, the TGI in the test on UO-31 renal was 34.9 µM; in the test on OVCAR-8 ovarian, greater than 100 µM; with SNB-19 CNS, greater than 100 µM; with 786-0 renal, 36.3 µM; with HOP-92 NSCLC, 54.9 µM; in the test with NCI-H226 lung, greater than 100 µM. In addition, in the test with OVCAR-5 ovarian, the TGI was greater than 100 µM.

As for `Cn1c(=O)oc2cc(Br)ccc21`, the TGI in the test on NCI-H23 lung, in the test with SK-MEL-5 melanoma, in the test on RPMI-8226 leukemia, with CAKI-1 renal, in the test with HOP-62 NSCLC and in the test on MALME-3M melanoma was greater than 100 µM throughout. The TGI with HL-60(TB) leukemia, in the test with T-47D breast, with MDA-MB-435, with HT29 colon, in the test with SK-OV-3 ovarian and with HCT-116 colon was greater than 100 µM throughout. Further, the TGI with MCF7 breast, in the test with UO-31 renal, in the test with OVCAR-8 ovarian, with SNB-19 CNS, in the test with 786-0 renal and in the test on NCI-H226 lung was greater than 100 µM in each case. Further, the TGI in the test with OVCAR-5 ovarian is greater than 100 µM.

Regarding `CCC1=NC(C(F)(F)F)(C(F)(F)F)N=C(/N=C(/N)N(C)C(C(C)C)P(=O)(OC(C)C)OC(C)C)O1` (configuration not stated), the TGI in the test with NCI-H23 lung, with SK-MEL-5 melanoma, with RPMI-8226 leukemia, with CAKI-1 renal, with HOP-62 NSCLC and with MALME-3M melanoma was greater than 100 µM throughout. The TGI in the test on HL-60(TB) leukemia, in the test with T-47D breast, in the test with MDA-MB-435, in the test on HT29 colon, in the test on SK-OV-3 ovarian and with HCT-116 colon was greater than 100 µM in each case. Besides, the TGI in the test on MCF7 breast, in the test with UO-31 renal, in the test with OVCAR-8 ovarian, in the test with SNB-19 CNS, in the test with 786-0 renal and with NCI-H226 lung was greater than 100 µM each time. Moreover, in the test with OVCAR-5 ovarian, the TGI is greater than 100 µM.

Regarding `COc1ccc2nc3n(c2c1)C(c1c(Cl)cccc1Cl)SC3` (configuration not stated), the TGI in the test on NCI-H23 lung, in the test on SK-MEL-5 melanoma, with RPMI-8226 leukemia, in the test with CAKI-1 renal, with HOP-62 NSCLC and with HL-60(TB) leukemia was greater than 100 µM throughout. In addition, the TGI in the test on T-47D breast, in the test with MDA-MB-435, with SK-OV-3 ovarian, in the test with HCT-116 colon, with MCF7 breast and in the test with UO-31 renal was greater than 100 µM throughout. Further, the TGI with OVCAR-8 ovarian, in the test with SNB-19 CNS, in the test with 786-0 renal, with HOP-92 NSCLC, in the test with NCI-H226 lung and with OVCAR-5 ovarian was greater than 100 µM each time.

These data come from PubChem BioAssay (NCI).
